# From US20230087118A1, “IMIDAZO[1,2-a][sequence] DERIVATIVES AND THEIR USE IN THE TREATMENT OF DISEASE” (priority 2019, published 2023)
# Structures can show the parent of a compound that is named as a salt.
# Target: T1, IRAK4 (Homo sapiens, UniProt Q9NWZ3)
# T1 sequence (Q9NWZ3 1-460): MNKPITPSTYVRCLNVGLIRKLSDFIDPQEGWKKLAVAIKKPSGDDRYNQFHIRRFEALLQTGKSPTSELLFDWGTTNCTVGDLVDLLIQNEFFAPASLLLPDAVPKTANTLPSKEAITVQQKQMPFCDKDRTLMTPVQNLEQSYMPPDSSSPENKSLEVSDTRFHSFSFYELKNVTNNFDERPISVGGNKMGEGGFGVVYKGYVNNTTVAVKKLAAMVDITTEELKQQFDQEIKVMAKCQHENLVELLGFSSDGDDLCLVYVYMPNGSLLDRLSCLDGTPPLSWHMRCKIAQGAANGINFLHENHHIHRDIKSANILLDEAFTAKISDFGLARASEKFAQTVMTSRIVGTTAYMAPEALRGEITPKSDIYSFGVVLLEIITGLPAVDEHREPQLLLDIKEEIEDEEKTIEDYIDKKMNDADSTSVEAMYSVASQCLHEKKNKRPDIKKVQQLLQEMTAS
# Experiment: biochemical
# Details: not given
row,IC50 [µM],Compound
1,0.0153,CC12CCC(c3cn4cc(C(=O)Nc5cccc(C(F)F)n5)cc(OC(F)F)c4n3)(CO1)C2 (stereo not drawn) [Example 251]
2,0.0013,"COc1ncccc1NC(=O)c1cn2cc(C34COC(C3)C4)nc2cc1OC(C)C [Example 545, 2-(2-Oxabicyclo[2.1.1]hexan-4-yl)-7-isopropoxy-N-(2-methoxypyridin-3-yl)imidazo[1,2-a]pyridine-6-carboxamide]"
3,0.514,COc1ccc(Cl)cc1NC(=O)c1cn2cc(C3CCOCC3)nc2cc1OC [Example 112]
4,0.0178,COc1cccc(NC(=O)c2cn3cc(C(F)F)nc3cc2OC(C)C)n1 [Example 100]
5,0.0004,"C[C@@H](Oc1cc2nc(C34COC(C)(C3)C4)cn2cc1C(=O)Nc1cccc(C(F)F)n1)C1CC1 (single isomer, unassigned) [Example 655]"
6,0.0053,"CC(C)Oc1nc2nc(C34COC(C)(C3)C4)cn2cc1C(=O)Nc1ccccn1 [Example 354, 7-Isopropoxy-2-(1-methyl-2-oxabicyclo[2.1.1]hexan-4-yl)-N-(pyridin-2-yl)imidazo[1,2-a]pyrimidine-6-carboxamide]"
7,0.0106,COc1cc2nc(C3CCOCC3)cn2cc1C(=O)Nc1cccc(C)n1 [Example 116]
8,0.0002,"COc1cccn2ncc(NC(=O)c3cn4cc(C56COC(C)(C5)C6)nc4c(OC(C)C)n3)c12 [Example 401, 8-Isopropoxy-N-(4-methoxypyrazolo[1,5-a]pyridin-3-yl)-2-(1-methyl-2-oxabicyclo[2.1.1]hexan-4-yl)imidazo[1,2-a]pyrazine-6-carboxamide]"
9,0.0008,"Cc1cnc2c(NC(=O)c3cn4cc([C@]56CO[C@H](CCO5)C6)nc4cc3OC(C)C)cnn2c1 (single isomer, unassigned) [Example 646]"
10,0.0013,CC(C)Oc1cc2nc(C34CC(C3)C4)cn2cc1C(=O)Nc1cccc(C(F)F)n1 [Example 215]
11,0.0429,COc1cc2nc(C3CCOCC3)cn2cc1C(=O)Nc1cccn(C(C)C)c1=O [Example 192]
12,0.0004,"COc1ncccc1NC(=O)c1cn2cc([C@]34CC[C@](C)(C3)OC4)nc2nc1OC(C)C (single isomer, unassigned) [Example 579]"
13,0.0715,O=C(Nc1cccc(C(F)F)n1)c1cc(Cl)c2nc(C3CCOCC3)cn2c1 [Example 214]
14,5.98,"COCc1cc2nc(C34COC(C)(C3)C4)cn2cc1C(=O)Nc1ccn(C)n1 [Example 286, 7-(Methoxymethyl)-N-(1-methyl-1H-pyrazol-3-yl)-2-(1-methyl-2-oxabicyclo[2.1.1]hexan-4-yl)imidazo[1,2-a]pyridine-6-carboxamide]"
15,0.0031,"CC(C)Oc1cc2nc([C@]34CC[C@](C)(C3)OC4)cn2cc1C(=O)Nc1ccn(C)n1 (single isomer, unassigned) [Example 607]"

# Second part, the compound before the results:
row,Compound,IC50 [µM]
1,"CC(C)Oc1nc(C(=O)Nc2ccn(C)n2)cn2cc(C34CCC(C)(CC3)OC4)nc12 [Example 429, 8-Isopropoxy-N-(1-methyl-1H-pyrazol-3-yl)-2-(1-methyl-2-oxabicyclo[2.2.2]octan-4-yl)imidazo[1,2-a]pyrazine-6-carboxamide]",0.0018
2,"CC12CC(c3cn4cc(C(=O)Nc5ccn(C(F)F)n5)c(OCC5CC5)nc4n3)(CO1)C2 [Example 639, 7-(Cyclopropylmethoxy)-N-(1-(difluoromethyl)-1H-pyrazol-3-yl)-2-(1-methyl-2-oxabicyclo[2.1.1]hexan-4-yl)imidazo[1,2-a]pyrimidine-6-carboxamide]",0.0181
3,"Cc1cc(-n2ccc(NC(=O)c3cn4cc(C56COC(C)(C5)C6)nc4cc3OC3CCC3)n2)ccn1 [Example 522, 7-Cyclobutoxy-2-(1-methyl-2-oxabicyclo[2.1.1]hexan-4-yl)-N-(1-(2-methylpyridin-4-yl)-1H-pyrazol-3-yl)imidazo[1,2-a]pyridine-6-carboxamide]",0.0005
4,"Cc1cnc2c(NC(=O)c3cn4cc(C56COC(C)(C5)C6)nc4cc3OC3CCCC3)cnn2c1 [Example 568, 7-(Cyclopentyloxy)-2-(1-methyl-2-oxabicyclo[2.1.1]hexan-4-yl)-N-(6-methylpyrazolo[1,5-a]pyrimidin-3-yl)imidazo[1,2-a]pyridine-6-carboxamide]",0.0002
5,"CCOc1nc(C(=O)Nc2cccn(C)c2=O)cn2cc(C34COC(C)(C3)C4)nc12 [Example 500, 8-Ethoxy-N-(1-methyl-2-oxo-1,2-dihydropyridin-3-yl)-2-(1-methyl-2-oxabicyclo[2.1.1]hexan-4-yl)imidazo[1,2-a]pyrazine-6-carboxamide]",0.0021
6,"Cc1cnc2c(NC(=O)c3cn4cc(C56CCC(C)(C5)OC6)nc4cc3OC3CCC3)cnn2c1 (stereo not drawn) [Example 426, 7-Cyclobutoxy-2-(1-methyl-2-oxabicyclo[2.2.1]heptan-4-yl)-N-(6-methylpyrazolo[1,5-a]pyrimidin-3-yl)imidazo[1,2-a]pyridine-6-carboxamide]",0.0003
7,"COCc1cc2nc(C34COC(C)(C3)C4)cn2cc1C(=O)Nc1cnn2cc(C)cnc12 [Example 288, 7-(Methoxymethyl)-2-(1-methyl-2-oxabicyclo[2.1.1]hexan-4-yl)-N-(6-methylpyrazolo[1,5-a]pyrimidin-3-yl)imidazo[1,2-a]pyridine-6-carboxamide]",1.23
8,"Cc1cnc2c(NC(=O)c3cn4cc([C@]56CC[C@](C)(C5)OC6)nc4nc3OC(C)C)cnn2c1 (single isomer, unassigned) [Example 617]",0.0006
9,"CCn1cccc(NC(=O)c2cn3cc(C45CCC(C)(C4)OC5)nc3cc2OC2CCC2)c1=O (stereo not drawn) [Example 535, 7-Cyclobutoxy-N-(1-ethyl-2-oxo-1,2-dihydropyridin-3-yl)-2-(1-methyl-2-oxabicyclo[2.2.1]heptan-4-yl)imidazo[1,2-a]pyridine-6-carboxamide]",0.0011
10,"Cn1ccc(NC(=O)c2cn3cc(C45COC(C)(C4)C5)nc3cc2OC2CCC2)n1 [Example 437, 7-Cyclobutoxy-N-(1-methyl-1H-pyrazol-3-yl)-2-(1-methyl-2-oxabicyclo[2.1.1]hexan-4-yl)imidazo[1,2-a]pyridine-6-carboxamide]",0.0017
11,"COc1cccc(NC(=O)c2cn3cc(C4CC4)nc3cc2OC2CCC2)n1 [Example 463, 7-Cyclobutoxy-2-cyclopropyl-N-(6-methoxypyridin-2-yl)imidazo[1,2-a]pyridine-6-carboxamide]",0.0057
12,"Cc1cc(-n2ccc(NC(=O)c3cn4cc(C56CCC(C)(C5)OC6)nc4cc3OC3CCC3)n2)ccn1 (stereo not drawn) [Example 531, 7-Cyclobutoxy-2-(1-methyl-2-oxabicyclo[2.2.1]heptan-4-yl)-N-(1-(2-methylpyridin-4-yl)-1H-pyrazol-3-yl)imidazo[1,2-a]pyridine-6-carboxamide]",0.0008
13,CCOc1nc2nc(C34COC(C)(C3)C4)cn2cc1C(=O)Nc1cccnc1OC [Example 242],0.0013

# Same assay, conditions: IRAK4 Biochemical Assay (1 mM ATP, 2 h) IC50 (μM), 1 mM ATP, 2 h, 100 pM IRAK4
row,IC50 [µM],Compound
1,0.0082,"COc1cccc(NC(=O)c2cn3cc(C45COC(C)(C4)C5)nc3c(F)c2OC(C)C)n1 [Example 548, 8-Fluoro-7-isopropoxy-N-(6-methoxypyridin-2-yl)-2-(1-methyl-2-oxabicyclo[2.1.1]hexan-4-yl)imidazo[1,2-a]pyridine-6-carboxamide trifluoroacetate]"
2,0.0031,"COc1ncc(F)cc1NC(=O)c1cn2cc(C34COC(C)(C3)C4)nc2nc1OC(C)C [Example 306, N-(5-fluoro-2-methoxypyridin-3-yl)-7-isopropoxy-2-(1-methyl-2-oxabicyclo[2.1.1]hexan-4-yl)imidazo[1,2-a]pyrimidine-6-carboxamide trifluoroacetate]"
3,0.0011,"CC(C)Oc1nc2nc(C34COC(C)(C3)C4)cn2cc1C(=O)Nc1cccc(C(C)(F)F)n1 [Example 356, N-(6-(1,1-difluoroethyl)pyridin-2-yl)-7-isopropoxy-2-(1-methyl-2-oxabicyclo[2.1.1]hexan-4-yl)imidazo[1,2-a]pyrimidine-6-carboxamide trifluoroacetate]"
4,0.0011,"CC(C)Oc1cc2nc(C34COC(C)(C3)C4)cn2cc1C(=O)Nc1cccc(C2CC2)n1 [Example 296, N-(6-cyclopropylpyridin-2-yl)-7-isopropoxy-2-(1-methyl-2-oxabicyclo[2.1.1]hexan-4-yl)imidazo[1,2-a]pyridine-6-carboxamide trifluoroacetate]"
5,0.063,"CC(C)Oc1cc2nc(C34COC(C)(C3)C4)cn2cc1C(=O)Nc1cc2ccccn2n1 [Example 298, 7-Isopropoxy-2-(1-methyl-2-oxabicyclo[2.1.1]hexan-4-yl)-N-(pyrazolo[1,5-a]pyridin-2-yl)imidazo[1,2-a]pyridine-6-carboxamide trifluoroacetate]"

# The remaining lines, values behind:
row,Compound,IC50 [µM]
1,"CC(C)Oc1cc2nc(C34COC(C)(C3)C4)cn2cc1C(=O)Nc1cccc(C(F)F)n1 [Example 96, N-(6-(difluoromethyl)pyridin-2-yl)-7-isopropoxy-2-(1-methyl-2-oxabicyclo[2.1.1]hexan-4-yl)imidazo[1,2-a]pyridine-6-carboxamide]",0.0002
2,"CC(C)Oc1cc2nc(C34COC(CF)(C3)C4)cn2cc1C(=O)Nc1cccc(C(F)F)n1 [Example 289, N-(6-(difluoromethyl)pyridin-2-yl)-2-(1-(fluoromethyl)-2-oxabicyclo[2.1.1]hexan-4-yl)-7-isopropoxyimidazo[1,2-a]pyridine-6-carboxamide]",0.0002
3,"Cc1cnc2c(NC(=O)c3cn4cc(C56CC(C)(C5)OC6(C)C)nc4nc3OC(C)C)cnn2c1 [Example 311, 7-Isopropoxy-N-(6-methylpyrazolo[1,5-a]pyrimidin-3-yl)-2-(1,3,3-trimethyl-2-oxabicyclo[2.1.1]hexan-4-yl)imidazo[1,2-a]pyrimidine-6-carboxamide trifluoroacetate]",0.0014
